Measured values reported in publication PMC4736845, “Structural comparison between the open and closed forms of citrate synthase from Thermus thermophilus HB8” (Biophysics and Physicobiology, 2015).

Molecular target: T1, TtCS (citrate synthase from Thermus thermophilus HB8) (Thermus thermophilus, UniProt Q5SIM6)
T1 construct: gene TTHA1343; recombinant, E. coli BL21(DE3) pET-3a; no tag stated; 377 residues, Mr 42,304 per subunit; homodimer
T1 sequence (Q5SIM6 1-377): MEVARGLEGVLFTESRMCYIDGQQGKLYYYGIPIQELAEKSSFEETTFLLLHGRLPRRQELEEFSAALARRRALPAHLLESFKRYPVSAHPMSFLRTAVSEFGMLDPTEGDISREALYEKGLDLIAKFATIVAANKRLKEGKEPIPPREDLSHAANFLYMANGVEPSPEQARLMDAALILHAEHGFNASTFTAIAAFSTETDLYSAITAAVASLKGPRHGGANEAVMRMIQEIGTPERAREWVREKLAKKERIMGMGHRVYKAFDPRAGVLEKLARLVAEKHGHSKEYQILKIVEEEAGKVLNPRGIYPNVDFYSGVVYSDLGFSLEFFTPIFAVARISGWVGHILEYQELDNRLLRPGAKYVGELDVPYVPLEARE
Assay: X-ray crystal structure, […] Å, co-crystallised
Assay type: binding
Settings: closed forms (fully and partially closed)

SMILES | X-ray crystal structure, 2.3 Å, co-crystallised (ternary complex with CoA, 10 mM Na-citrate, 10 mM CoA, 100 mM KCl, then 1.5 M lithium sulfate, 100 mM Na-citrate pH 5.8, 20°C, active site) | X-ray crystal structure, 2.3 Å, co-crystallised (ternary complex with citrate, same crystallisation, active site just above citrate)
O=C(O)CC(O)(CC(=O)O)C(=O)O [citrate] | Citrate is bound deep in the cleft of the active site by hydrogen bonds | 
CC(C)(COP(=O)(O)OP(=O)(O)OC[C@H]1O[C@@H](n2cnc3c(N)ncnc32)[C@H](O)[C@@H]1OP(=O)(O)O)[C@@H](O)C(=O)NCCC(=O)NCCS [CoA] |  | CoA is bound at the upper part of the active site just above the citrate-binding site
